Measurements published in patent US9340590B2 (priority 2011, dated 2016).
Like-named read-outs stand apart in the source and are kept apart here. Positions of bridges follow the written chain, without caps; N, C: chain ends. Residues, ends and D or L forms follow the SMILES beside them.

What was measured:
hNav1.7 = hNav1.7 (Homo sapiens, UniProt Q15858); assay: cell-based; type: cell-based; settings: read-out: IWQ Use Nav1.7
hNav1.3 = hNav1.3 (Homo sapiens, UniProt Q9NY46); assay: cell-based; settings: IonWorks Quattro, read-out: IWQ Use Nav1.3
Sequence of hNav1.3 (Q9NY46 whole entry, looked up): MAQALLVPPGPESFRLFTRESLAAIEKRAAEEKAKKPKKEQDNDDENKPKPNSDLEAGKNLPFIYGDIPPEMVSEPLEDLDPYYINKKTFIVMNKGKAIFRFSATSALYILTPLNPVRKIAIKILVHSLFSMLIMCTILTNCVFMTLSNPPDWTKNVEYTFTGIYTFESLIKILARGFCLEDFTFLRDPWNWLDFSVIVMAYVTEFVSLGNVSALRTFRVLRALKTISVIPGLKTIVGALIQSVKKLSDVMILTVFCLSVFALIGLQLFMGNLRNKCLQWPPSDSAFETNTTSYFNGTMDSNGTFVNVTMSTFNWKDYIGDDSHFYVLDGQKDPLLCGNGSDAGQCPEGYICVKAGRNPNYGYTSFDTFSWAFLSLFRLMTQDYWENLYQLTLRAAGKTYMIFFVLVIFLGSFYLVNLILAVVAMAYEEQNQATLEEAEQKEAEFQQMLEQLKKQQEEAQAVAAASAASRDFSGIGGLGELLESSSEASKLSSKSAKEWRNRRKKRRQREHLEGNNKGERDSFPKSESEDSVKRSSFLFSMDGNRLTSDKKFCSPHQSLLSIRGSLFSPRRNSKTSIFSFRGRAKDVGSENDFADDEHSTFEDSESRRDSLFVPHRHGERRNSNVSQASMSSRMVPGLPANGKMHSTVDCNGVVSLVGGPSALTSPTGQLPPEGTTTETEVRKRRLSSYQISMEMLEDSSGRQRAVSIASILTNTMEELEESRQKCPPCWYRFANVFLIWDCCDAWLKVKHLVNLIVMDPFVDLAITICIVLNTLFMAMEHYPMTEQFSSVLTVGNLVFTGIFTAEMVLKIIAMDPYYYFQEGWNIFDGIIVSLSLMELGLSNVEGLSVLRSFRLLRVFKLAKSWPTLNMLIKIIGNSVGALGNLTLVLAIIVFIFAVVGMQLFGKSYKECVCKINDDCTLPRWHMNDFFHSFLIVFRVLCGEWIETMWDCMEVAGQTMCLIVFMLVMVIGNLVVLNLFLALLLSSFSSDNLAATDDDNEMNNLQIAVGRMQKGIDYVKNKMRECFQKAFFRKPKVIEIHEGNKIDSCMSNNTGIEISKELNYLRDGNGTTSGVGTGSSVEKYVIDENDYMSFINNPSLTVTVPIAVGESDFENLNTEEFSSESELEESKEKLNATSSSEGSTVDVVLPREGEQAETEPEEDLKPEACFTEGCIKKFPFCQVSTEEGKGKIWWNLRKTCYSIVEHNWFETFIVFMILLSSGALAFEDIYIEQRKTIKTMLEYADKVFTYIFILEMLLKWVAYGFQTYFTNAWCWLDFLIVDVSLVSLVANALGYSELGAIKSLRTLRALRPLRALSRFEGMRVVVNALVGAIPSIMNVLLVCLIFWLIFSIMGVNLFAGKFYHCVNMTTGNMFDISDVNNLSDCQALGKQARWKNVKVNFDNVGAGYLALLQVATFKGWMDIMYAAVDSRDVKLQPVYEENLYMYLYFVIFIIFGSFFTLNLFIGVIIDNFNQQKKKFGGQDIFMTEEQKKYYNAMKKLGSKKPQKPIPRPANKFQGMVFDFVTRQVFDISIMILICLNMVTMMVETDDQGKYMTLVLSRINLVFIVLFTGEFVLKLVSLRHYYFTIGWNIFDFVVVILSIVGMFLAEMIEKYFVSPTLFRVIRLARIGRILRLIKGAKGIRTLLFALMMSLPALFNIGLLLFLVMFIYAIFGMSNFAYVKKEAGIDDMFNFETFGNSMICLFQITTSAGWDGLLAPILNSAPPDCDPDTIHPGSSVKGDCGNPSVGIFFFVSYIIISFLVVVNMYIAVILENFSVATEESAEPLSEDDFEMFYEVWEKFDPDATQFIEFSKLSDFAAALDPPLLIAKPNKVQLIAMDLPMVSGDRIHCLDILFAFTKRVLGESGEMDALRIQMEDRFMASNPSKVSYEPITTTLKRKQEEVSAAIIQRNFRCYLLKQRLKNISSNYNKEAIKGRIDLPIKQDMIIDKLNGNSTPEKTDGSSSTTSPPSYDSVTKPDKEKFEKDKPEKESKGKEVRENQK

Sequence of hNav1.7 (Q15858 whole entry, looked up): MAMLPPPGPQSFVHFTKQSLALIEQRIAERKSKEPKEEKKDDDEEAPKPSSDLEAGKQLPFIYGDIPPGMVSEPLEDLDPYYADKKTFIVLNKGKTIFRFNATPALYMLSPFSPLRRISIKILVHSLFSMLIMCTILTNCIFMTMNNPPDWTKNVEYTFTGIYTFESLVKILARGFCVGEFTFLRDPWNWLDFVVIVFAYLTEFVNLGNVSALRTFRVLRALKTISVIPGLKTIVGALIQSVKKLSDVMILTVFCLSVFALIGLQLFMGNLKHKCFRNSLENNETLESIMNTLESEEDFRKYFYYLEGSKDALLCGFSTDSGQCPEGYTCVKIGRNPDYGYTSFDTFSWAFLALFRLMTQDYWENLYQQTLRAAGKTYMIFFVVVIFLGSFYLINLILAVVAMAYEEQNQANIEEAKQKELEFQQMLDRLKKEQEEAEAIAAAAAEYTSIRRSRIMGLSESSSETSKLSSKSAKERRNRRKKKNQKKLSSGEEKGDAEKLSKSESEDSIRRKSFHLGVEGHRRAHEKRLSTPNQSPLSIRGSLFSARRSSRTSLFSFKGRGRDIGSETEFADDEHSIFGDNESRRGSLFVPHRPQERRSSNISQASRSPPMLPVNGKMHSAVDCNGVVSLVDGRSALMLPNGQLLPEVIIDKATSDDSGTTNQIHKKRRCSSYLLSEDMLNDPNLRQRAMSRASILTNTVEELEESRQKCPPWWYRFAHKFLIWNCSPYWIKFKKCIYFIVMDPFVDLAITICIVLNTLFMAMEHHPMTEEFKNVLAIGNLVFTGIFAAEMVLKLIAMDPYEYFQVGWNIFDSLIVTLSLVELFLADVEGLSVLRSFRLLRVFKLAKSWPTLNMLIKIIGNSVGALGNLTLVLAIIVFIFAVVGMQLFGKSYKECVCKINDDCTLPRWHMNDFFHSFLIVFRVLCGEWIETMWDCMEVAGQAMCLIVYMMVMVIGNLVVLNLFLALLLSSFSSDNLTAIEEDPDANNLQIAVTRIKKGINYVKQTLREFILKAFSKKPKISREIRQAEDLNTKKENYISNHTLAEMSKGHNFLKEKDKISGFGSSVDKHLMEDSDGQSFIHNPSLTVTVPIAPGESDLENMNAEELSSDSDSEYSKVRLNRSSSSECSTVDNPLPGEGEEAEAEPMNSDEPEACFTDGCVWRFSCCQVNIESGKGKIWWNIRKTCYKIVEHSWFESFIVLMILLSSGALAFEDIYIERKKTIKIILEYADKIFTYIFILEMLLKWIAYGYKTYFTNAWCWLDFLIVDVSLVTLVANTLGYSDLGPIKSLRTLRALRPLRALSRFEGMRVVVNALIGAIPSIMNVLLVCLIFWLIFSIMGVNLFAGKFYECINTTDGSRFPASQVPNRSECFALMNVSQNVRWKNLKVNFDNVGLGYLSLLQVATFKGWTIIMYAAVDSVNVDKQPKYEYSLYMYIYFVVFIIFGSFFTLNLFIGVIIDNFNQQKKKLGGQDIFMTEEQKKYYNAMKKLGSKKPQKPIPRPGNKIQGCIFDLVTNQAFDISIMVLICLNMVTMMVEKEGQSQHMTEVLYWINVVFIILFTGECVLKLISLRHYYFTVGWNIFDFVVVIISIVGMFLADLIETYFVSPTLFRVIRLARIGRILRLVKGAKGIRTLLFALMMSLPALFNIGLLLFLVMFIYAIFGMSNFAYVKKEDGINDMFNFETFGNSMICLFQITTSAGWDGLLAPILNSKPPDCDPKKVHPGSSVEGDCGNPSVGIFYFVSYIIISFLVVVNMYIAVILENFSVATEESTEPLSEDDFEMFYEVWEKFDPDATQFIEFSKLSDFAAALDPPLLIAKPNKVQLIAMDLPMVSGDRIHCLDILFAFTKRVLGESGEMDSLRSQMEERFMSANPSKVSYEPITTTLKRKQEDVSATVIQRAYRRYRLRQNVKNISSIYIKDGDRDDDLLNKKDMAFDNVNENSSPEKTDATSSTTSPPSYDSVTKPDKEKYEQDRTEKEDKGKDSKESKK

`CC[C@H](C)[C@@H]1NC(=O)[C@@H]2CSSC[C@@H]3NC(=O)[C@H](C(C)C)NC(=O)[C@H](CC(C)C)NC(=O)[C@H](CC(N)=O)NC(=O)[C@@H]4CCCN4C(=O)[C@H](CCC(=O)O)NC(=O)[C@H](CSSC[C@H](NC(=O)[C@@H](N)CC(=O)O)C(=O)N[C@@H](CC(C)C)C(=O)NCC(=O)N[C@@H](Cc4ccccc4)C(=O)N[C@@H](CCSC)C(=O)N[C@@H](CCCNC(=N)N)C(=O)N[C@@H](CCCCN)C(=O)N2)NC(=O)[C@H](CSSC[C@@H](C(=O)N[C@@H](CCCCN)C(=O)N[C@@H](Cc2ccc(O)cc2)C(=O)N[C@H](C(=O)N[C@@H](Cc2ccccc2)C(N)=O)C(C)C)NC(=O)[C@H](Cc2c[nH]c4ccccc24)NC(=O)[C@H](CCCCN)NC(=O)[C@H](Cc2c[nH]cn2)NC(=O)[C@H]([C@@H](C)O)NC(=O)[C@H](CCCNC(=N)N)NC(=O)[C@H](CO)NC3=O)NC(=O)[C@H](CCCCN)NC(=O)[C@H](CC(=O)O)NC(=O)[C@H](CC(N)=O)NC(=O)[C@H](CC(=O)O)NC(=O)[C@@H]2CCCN2C1=O` [compound 148] (H-DCLGFMRKCIPDNDKCCEPNLVCSRTHKWCKYVF-NH2; disulfide 2-17, 9-23, 16-30) gave an IC50 (hNav1.7) of 220 nM.
Work on `CC[C@H](C)[C@@H]1NC(=O)[C@@H]2CSSC[C@@H]3NC(=O)[C@H](CCC(=O)O)NC(=O)[C@H](CC(C)C)NC(=O)[C@H](CC(N)=O)NC(=O)[C@@H]4CCCN4C(=O)[C@H](CCCNC(=N)N)NC(=O)[C@H](CSSC[C@H](NC(=O)[C@@H](N)CC(=O)O)C(=O)N[C@@H](CC(C)C)C(=O)NCC(=O)N[C@@H](Cc4ccccc4)C(=O)N[C@@H](CCSC)C(=O)N[C@@H](CCCNC(=N)N)C(=O)N[C@@H](CCCCN)C(=O)N2)NC(=O)[C@H](CSSC[C@@H](C(=O)N[C@@H](CCCCN)C(=O)N[C@@H](Cc2ccc(O)cc2)C(=O)N[C@H](C(=O)N[C@@H](Cc2ccccc2)C(N)=O)C(C)C)NC(=O)[C@H](Cc2c[nH]c4ccccc24)NC(=O)[C@H](CCCCN)NC(=O)[C@H](Cc2c[nH]cn2)NC(=O)[C@H]([C@@H](C)O)NC(=O)[C@H](CCCNC(=N)N)NC(=O)[C@H](CO)NC3=O)NC(=O)[C@H](CCCCN)NC(=O)[C@H](CC(=O)O)NC(=O)[C@H](CC(N)=O)NC(=O)[C@H](CC(=O)O)NC(=O)[C@@H]2CCCN2C1=O` [compound 102] (H-DCLGFMRKCIPDNDKCCRPNLECSRTHKWCKYVF-NH2; disulfide 2-17, 9-23, 16-30) yielded an IC50 (hNav1.7; IonWorks Quattro, Use) of 1400 nM.
With `CC[C@H](C)[C@@H]1NC(=O)[C@@H]2CSSC[C@@H]3NC(=O)[C@H](C(C)C)NC(=O)[C@H](CC(C)C)NC(=O)[C@H](CC(N)=O)NC(=O)[C@@H]4CCCN4C(=O)[C@H](CCCNC(=N)N)NC(=O)[C@H](CSSC[C@H](NC(=O)[C@@H](N)CC(=O)O)C(=O)N[C@@H](CC(C)C)C(=O)NCC(=O)N[C@@H](Cc4ccccc4)C(=O)N[C@@H](CCSC)C(=O)N[C@@H](CCCNC(=N)N)C(=O)N[C@@H](CCCCN)C(=O)N2)NC(=O)[C@H](CSSC[C@@H](C(=O)N[C@@H](CCCCN)C(=O)N[C@@H](Cc2ccc(O)cc2)C(=O)N[C@H](C(=O)N[C@@H](Cc2ccccc2)C(N)=O)C(C)C)NC(=O)[C@H](Cc2c[nH]c4ccccc24)NC(=O)[C@H](CCCCN)NC(=O)[C@H](Cc2c[nH]cn2)NC(=O)[C@H]([C@@H](C)O)NC(=O)[C@H](CCCNC(=N)N)NC(=O)[C@H](CO)NC3=O)NC(=O)[C@H](CCCCN)NC(=O)[C@H](CC(=O)O)NC(=O)[C@H](CC(N)=O)NC(=O)[C@H](CCCCN)NC(=O)[C@@H]2CCCN2C1=O` [compound 42] (H-DCLGFMRKCIPKNDKCCRPNLVCSRTHKWCKYVF-NH2; disulfide 2-17, 9-23, 16-30) the IC50 (hNav1.7) was 120 nM.
Work on `CC[C@H](C)[C@@H]1NC(=O)[C@@H]2CSSC[C@@H]3NC(=O)[C@H](C(C)C)NC(=O)[C@H](CC(C)C)NC(=O)[C@H](CC(N)=O)NC(=O)[C@@H]4CCCN4C(=O)[C@H](CCCNC(=N)N)NC(=O)[C@H](CSSC[C@H](NC(=O)[C@@H](N)CC(=O)O)C(=O)N[C@@H](CC(C)C)C(=O)NCC(=O)N[C@@H](Cc4ccccc4)C(=O)N[C@@H](CCSC)C(=O)N[C@@H](C)C(=O)N[C@@H](CCCCN)C(=O)N2)NC(=O)[C@H](CSSC[C@@H](C(=O)N[C@@H](CCCCN)C(=O)N[C@@H](Cc2ccc(O)cc2)C(=O)N[C@H](C(=O)N[C@@H](Cc2ccccc2)C(N)=O)C(C)C)NC(=O)[C@H](Cc2c[nH]c4ccccc24)NC(=O)[C@H](CCCCN)NC(=O)[C@H](Cc2c[nH]cn2)NC(=O)[C@H]([C@@H](C)O)NC(=O)[C@H](CCCNC(=N)N)NC(=O)[C@H](CO)NC3=O)NC(=O)[C@H](CCCCN)NC(=O)[C@H](CC(=O)O)NC(=O)[C@H](CC(N)=O)NC(=O)[C@H](CC(=O)O)NC(=O)[C@@H]2CCCN2C1=O` [[Ala7]GpTx-1(1-34)] (H-DCLGFMAKCIPDNDKCCRPNLVCSRTHKWCKYVF-NH2; disulfide 2-17, 9-23, 16-30) yielded an IC50 (hNav1.7; IonWorks Quattro, use-dependent block, hNav1.7) of 940 nM.
In the case of `CC[C@H](C)[C@@H]1NC(=O)[C@@H]2CSSC[C@@H]3NC(=O)[C@H](C(C)C)NC(=O)[C@H](CC(C)C)NC(=O)[C@H](CC(N)=O)NC(=O)[C@@H]4CCCN4C(=O)[C@H](CCCNC(=N)N)NC(=O)[C@H](CSSC[C@H](NC(=O)[C@@H](N)CC(=O)O)C(=O)N[C@@H](CC(C)C)C(=O)NCC(=O)N[C@@H](Cc4ccccc4)C(=O)N[C@@H](CCSC)C(=O)N[C@@H](CCCNC(=N)N)C(=O)N[C@@H](CCCCN)C(=O)N2)NC(=O)[C@H](CSSC[C@@H](C(=O)N[C@@H](CCCCN)C(=O)N[C@@H](CCCNC(=N)N)C(=O)N[C@H](C(=O)N[C@@H](Cc2ccccc2)C(N)=O)C(C)C)NC(=O)[C@H](Cc2c[nH]c4ccccc24)NC(=O)[C@H](CCCCN)NC(=O)[C@H](Cc2c[nH]cn2)NC(=O)[C@H]([C@@H](C)O)NC(=O)[C@H](CCCNC(=N)N)NC(=O)[C@H](CO)NC3=O)NC(=O)[C@H](CCCCN)NC(=O)[C@H](CC(=O)O)NC(=O)[C@H](CC(N)=O)NC(=O)[C@H](CC(=O)O)NC(=O)[C@@H]2CCCN2C1=O` [compound 159] (H-DCLGFMRKCIPDNDKCCRPNLVCSRTHKWCKRVF-NH2; disulfide 2-17, 9-23, 16-30), the IC50 (hNav1.7) is reported as 1020 nM.
In the case of `CC[C@H](C)[C@@H]1NC(=O)[C@@H]2CSSC[C@@H]3NC(=O)[C@H](C(C)C)NC(=O)[C@H](CC(C)C)NC(=O)[C@H](CC(N)=O)NC(=O)[C@@H]4CCCN4C(=O)[C@H](CCCNC(=N)N)NC(=O)[C@H](CSSC[C@H](NC(=O)[C@@H](N)CC(=O)O)C(=O)N[C@@H](CCC(=O)O)C(=O)NCC(=O)N[C@@H](Cc4ccccc4)C(=O)N[C@@H](CCSC)C(=O)N[C@@H](CCCNC(=N)N)C(=O)N[C@@H](CCCCN)C(=O)N2)NC(=O)[C@H](CSSC[C@@H](C(=O)N[C@@H](CCCCN)C(=O)N[C@@H](Cc2ccc(O)cc2)C(=O)N[C@H](C(=O)N[C@@H](Cc2ccccc2)C(N)=O)C(C)C)NC(=O)[C@H](Cc2c[nH]c4ccccc24)NC(=O)[C@H](CCCCN)NC(=O)[C@H](Cc2c[nH]cn2)NC(=O)[C@H]([C@@H](C)O)NC(=O)[C@H](CCCNC(=N)N)NC(=O)[C@H](CO)NC3=O)NC(=O)[C@H](CCCCN)NC(=O)[C@H](CC(=O)O)NC(=O)[C@H](CC(N)=O)NC(=O)[C@H](CC(=O)O)NC(=O)[C@@H]2CCCN2C1=O` [SEQ ID NO: 19] (H-DCEGFMRKCIPDNDKCCRPNLVCSRTHKWCKYVF-NH2; disulfide 2-17, 9-23, 16-30), the IC50 (hNav1.7; IonWorks Quattro, clamped to −110 mV, depolarized to −10 mV, 5 min after compound, n=2) is reported as 670 nM.
Work on `CSCC[C@@H]1NC(=O)[C@H](Cc2ccccc2)NC(=O)CNC(=O)[C@H](CC(C)C)NC(=O)[C@@H](NC(=O)[C@@H](N)CC(=O)O)CSSC[C@@H]2NC(=O)[C@@H]3CSSC[C@@H](C(=O)N[C@@H](CCCCN)C(=O)N[C@@H](Cc4ccc(O)cc4)C(=O)N[C@H](C(=O)N[C@@H](Cc4ccccc4)C(N)=O)C(C)C)NC(=O)[C@H](Cc4c[nH]c5ccccc45)NC(=O)[C@H](CCCCN)NC(=O)[C@H](Cc4cnc[nH]4)NC(=O)[C@H]([C@@H](C)O)NC(=O)[C@H](CCCNC(=N)N)NC(=O)[C@H](CO)NC(=O)[C@H](CSSC[C@H](NC(=O)[C@H](CCCCN)NC(=O)[C@H](CCCNC(=N)N)NC1=O)C(=O)N[C@@H](CCSC)C(=O)N1CCC[C@H]1C(=O)N[C@@H](CC(=O)O)C(=O)N[C@@H](CC(N)=O)C(=O)N[C@@H](CC(=O)O)C(=O)N[C@@H](CCCCN)C(=O)N3)NC(=O)[C@H](C(C)C)NC(=O)[C@H](CC(C)C)NC(=O)[C@H](CC(N)=O)NC(=O)[C@@H]1CCCN1C(=O)[C@H](CCCNC(=N)N)NC2=O` [compound 307] (H-DCLGFMRKCMPDNDKCCRPNLVCSRTHKWCKYVF-NH2; disulfide 2-17, 9-23, 16-30) yielded an IC50 (hNav1.3; Use) of 100 nM.
`CC[C@H](C)[C@@H]1NC(=O)[C@@H]2CSSC[C@@H]3NC(=O)[C@H](C(C)C)NC(=O)[C@H](CC(C)C)NC(=O)[C@H](CC(N)=O)NC(=O)[C@@H]4CCCN4C(=O)[C@H](CCCNC(=N)N)NC(=O)[C@H](CSSC[C@H](NC(=O)[C@@H](N)CC(=O)O)C(=O)N[C@@H](CC(C)C)C(=O)NCC(=O)N[C@H](C)C(=O)N[C@@H](CC(C)C)C(=O)N[C@@H](CCCNC(=N)N)C(=O)N[C@@H](CCCCN)C(=O)N2)NC(=O)[C@H](CSSC[C@@H](C(=O)N[C@@H](CCCCN)C(=O)N[C@@H](Cc2ccc(O)cc2)C(=O)N[C@H](C(=O)N[C@@H](Cc2ccccc2)C(N)=O)C(C)C)NC(=O)[C@H](Cc2c[nH]c4ccccc24)NC(=O)[C@H](CCCCN)NC(=O)[C@H](Cc2c[nH]cn2)NC(=O)[C@H]([C@@H](C)O)NC(=O)[C@H](CCCNC(=N)N)NC(=O)[C@H](CO)NC3=O)NC(=O)[C@H](CCCCN)NC(=O)[C@H](CC(=O)O)NC(=O)[C@H](CC(N)=O)NC(=O)[C@H](CC(=O)O)NC(=O)[C@@H]2CCCN2C1=O` [compound 633] showed an IC50 (hNav1.3; use-dependent protocol, hNav1.3) of 11500 nM.
